This passage reports GI50, IC50 and inhibition results from patent US20230066011A1, “PYRROLOPYRIMIDINE DERIVATIVE, AND PHARMACEUTICAL COMPOSITION FOR PREVENTING OR TREATING PROTEIN KINASE-RELATED DISEASE COMPRISING SAME AS ACTIVE INGREDIENT” (VORONOI CO., LTD., priority 2019, published 2023).

In one assay the test system is MDA-MB-468 cell line. Briefly: Inhibition of proliferation of MDA-MB-468 cancer cells (Cell Titer-Glo). The assay is classed as cell-based. Particulars: Homo sapiens, MDA-MB-468, 72 hours. The method, boiled down:
(§1)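 Cells seeded at 2,000/well and exposed 72 h to 11 concentrations of compound (3-fold dilutions, final 10.000000 down to 0.000169 μM) in DMEM or RPMI. Viability read by Cell Titer-Glo luminescence after 10 min at room temperature; GI50 calculated from luminescence.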

In another assay the target is LRRK2 (Homo sapiens, UniProt Q5S007). Put plainly: Kinase HotSpot service (Reaction Biology Corporation), LRRK2. The assay is classed as biochemical. More on the design: purchased DiscoverX Corp. (ScanMAX Kinase analysis panel, service). Particulars: ATP 10 uM, read-out: LRRK2 IC50 (values indicated by *). Here is the method: (§2) The inhibitory activities of the compounds were measured at a 3-fold concentration gradient starting from a maximum compound concentration of […], and the values measured using the Kinase HotSpot service (Reaction Biology Corporation) are indicated by an asterisk (*).
(§3) All the experimental methods were performed as provided by the Kinase HotSpot Customer Protocol (http://www.reactionbiology.com//Kinase_Assay_Protocol).

A further assay deals with human DYRK1A and tau. Put plainly: Inhibition of tau phosphorylation, ClariCELL Kinase Cell-Based Assay, HEK 293 cells expressing human DYRK1A and tau. Particulars: for inhibition at 1 µM: HEK293, read-out: % inhibition at 1 uM, tau phosphorylation, compound 1 uM; for inhibition at 0.25 µM / inhibition at 0.5 µM: HEK293, tau phosphorylation; for inhibition at 0.25 µM: compound 0.25 uM; for inhibition at 0.5 µM: compound 0.5 uM. Summed up:
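Cell-based service assay: HEK 293 cells transiently expressing human DYRK1A and tau were treated with compound and lysed. Released tau was plate-captured and its phosphorylation quantified by ELISA with a phospho-tau-specific antibody.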

A further assay deals with DYRK1 (Homo sapiens, UniProt Q13627). Put plainly: Kinase HotSpot service (Reaction Biology Corporation), DYRK1. The assay is classed as biochemical. To be noted: ATP 10 uM, read-out: DYRK1 IC50 (values indicated by *). On the procedure: as §2, §3
A further assay has as its target T1, TTK (Homo sapiens, UniProt P33981).
T1 sequence (P33981 1-857): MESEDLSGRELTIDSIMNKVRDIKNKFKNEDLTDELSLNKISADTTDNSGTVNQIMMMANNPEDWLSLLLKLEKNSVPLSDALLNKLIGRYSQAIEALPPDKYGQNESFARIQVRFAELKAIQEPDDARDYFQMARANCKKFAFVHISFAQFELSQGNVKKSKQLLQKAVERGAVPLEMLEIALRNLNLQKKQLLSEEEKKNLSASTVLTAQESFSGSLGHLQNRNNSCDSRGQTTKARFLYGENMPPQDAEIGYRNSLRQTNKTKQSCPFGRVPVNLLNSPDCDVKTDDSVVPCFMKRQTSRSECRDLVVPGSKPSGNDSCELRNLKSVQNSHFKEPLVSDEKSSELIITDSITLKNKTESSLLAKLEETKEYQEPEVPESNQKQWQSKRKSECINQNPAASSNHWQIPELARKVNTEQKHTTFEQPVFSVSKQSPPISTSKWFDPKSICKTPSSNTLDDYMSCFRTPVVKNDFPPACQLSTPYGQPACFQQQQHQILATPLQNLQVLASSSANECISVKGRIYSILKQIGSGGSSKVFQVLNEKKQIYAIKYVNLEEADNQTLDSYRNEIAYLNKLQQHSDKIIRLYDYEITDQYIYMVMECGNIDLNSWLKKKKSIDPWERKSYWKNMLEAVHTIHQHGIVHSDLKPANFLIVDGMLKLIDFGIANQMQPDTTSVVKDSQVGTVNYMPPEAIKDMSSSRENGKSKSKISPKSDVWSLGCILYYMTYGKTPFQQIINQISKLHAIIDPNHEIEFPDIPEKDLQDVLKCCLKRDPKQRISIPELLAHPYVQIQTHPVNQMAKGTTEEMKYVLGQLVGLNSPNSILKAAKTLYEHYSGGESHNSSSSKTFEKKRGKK
Briefly: TTK enzyme inhibition, ADP-Glo kinase assay. The assay is classed as biochemical. More on the design: purchased SignalChem T20-10G. To be noted: ATP 5 μM. On the procedure:
To evaluate an inhibitory activity of the compound according to the present invention against LRRK2, LRRK2 (G2019S), DYRK1, CLK1, and TTK kinases, experiments were performed as follows.
Each of the Example compounds was reacted with a purified human TTK (SignalChem #T20-10G) enzyme to evaluate an ability to inhibit an enzyme using a method as described below. A composition of 40 mM Tris-HCl (pH 7.4), 20 mM MgCl2, 0.1 mg/mL BSA (a 5× kinase buffer, SignalChem #K03-09), and 50 μM DTT (SignalChem #D86-09B) was used as a reaction buffer, and all reactions of test substances were performed in the reaction buffer. Each of the compounds was diluted […] from a 10 mM DMSO stock using a serial dilution method, and enzyme activities were measured at final compound concentrations of 1, 0.333333, 0.111111, 0.037037, 0.012346, 0.004115, 0.001372, 0.000457, 0.000152, 0.000051, and 0.000017 μM. In the test, purified ATP (5 μM, Promega #V6930) and an MBP enzyme substrate (0.2 μg, SignalChem M42-51N) were reacted with a human TTK (7.5 ng) enzyme at 25° C. for 4 hours, and the enzyme activities were then determined using an in vitro ADP-Glo™ kinase assay (Promega #V6930). An enzyme-activity reaction solution, an ADP-Glo reaction solution, and an enzyme-ability detection solution were reacted at a ratio of 2:2:1 to measure a degree of inhibition of the enzyme activity with luminescence. The degree of inhibition of the enzyme activity according to the treatment concentration of each of the compounds was calculated based on the fluorescence of the enzyme activity of the solvent control which was not treated with the compound. In this case, the concentration of each of the compounds inhibiting 50% of the enzyme activity was determined to be an IC50 (nM) value, and calculated using Prism (Version 8.2 GraphPad) software.

The subject of a further assay is MDA-MB-231 cell line. Briefly: Inhibition of proliferation of MDA-MB-231 cancer cells (Cell Titer-Glo). The assay is classed as cell-based. To be noted: Homo sapiens, 72 hours. The method, boiled down: as §1
For another assay, the target named is T2, CLK1 (Homo sapiens, UniProt P49759).
T2 construct: purchased DiscoverX Corp. (ScanMAX Kinase analysis panel, service)
Put plainly: Kinase HotSpot service (Reaction Biology Corporation), CLK1. The assay is classed as biochemical. To be noted: ATP 10 uM, read-out: CLK1 IC50 (values indicated by *). On the procedure: as §2, §3

The target in assay [1] is T3, LRRK2 (G2019S) (Homo sapiens, UniProt Q5S007, G2019S). Put plainly: Kinase HotSpot service (Reaction Biology Corporation), LRRK2 (G2019S). The assay is classed as biochemical. To be noted: ATP 10 uM, read-out: LRRK2 (G2019S) IC50 (values indicated by *). More on the design: purchased DiscoverX Corp. (ScanMAX Kinase analysis panel, service). On the procedure:
as §2, §3
Target sequence in this assay (Q5S007 whole entry G2019S): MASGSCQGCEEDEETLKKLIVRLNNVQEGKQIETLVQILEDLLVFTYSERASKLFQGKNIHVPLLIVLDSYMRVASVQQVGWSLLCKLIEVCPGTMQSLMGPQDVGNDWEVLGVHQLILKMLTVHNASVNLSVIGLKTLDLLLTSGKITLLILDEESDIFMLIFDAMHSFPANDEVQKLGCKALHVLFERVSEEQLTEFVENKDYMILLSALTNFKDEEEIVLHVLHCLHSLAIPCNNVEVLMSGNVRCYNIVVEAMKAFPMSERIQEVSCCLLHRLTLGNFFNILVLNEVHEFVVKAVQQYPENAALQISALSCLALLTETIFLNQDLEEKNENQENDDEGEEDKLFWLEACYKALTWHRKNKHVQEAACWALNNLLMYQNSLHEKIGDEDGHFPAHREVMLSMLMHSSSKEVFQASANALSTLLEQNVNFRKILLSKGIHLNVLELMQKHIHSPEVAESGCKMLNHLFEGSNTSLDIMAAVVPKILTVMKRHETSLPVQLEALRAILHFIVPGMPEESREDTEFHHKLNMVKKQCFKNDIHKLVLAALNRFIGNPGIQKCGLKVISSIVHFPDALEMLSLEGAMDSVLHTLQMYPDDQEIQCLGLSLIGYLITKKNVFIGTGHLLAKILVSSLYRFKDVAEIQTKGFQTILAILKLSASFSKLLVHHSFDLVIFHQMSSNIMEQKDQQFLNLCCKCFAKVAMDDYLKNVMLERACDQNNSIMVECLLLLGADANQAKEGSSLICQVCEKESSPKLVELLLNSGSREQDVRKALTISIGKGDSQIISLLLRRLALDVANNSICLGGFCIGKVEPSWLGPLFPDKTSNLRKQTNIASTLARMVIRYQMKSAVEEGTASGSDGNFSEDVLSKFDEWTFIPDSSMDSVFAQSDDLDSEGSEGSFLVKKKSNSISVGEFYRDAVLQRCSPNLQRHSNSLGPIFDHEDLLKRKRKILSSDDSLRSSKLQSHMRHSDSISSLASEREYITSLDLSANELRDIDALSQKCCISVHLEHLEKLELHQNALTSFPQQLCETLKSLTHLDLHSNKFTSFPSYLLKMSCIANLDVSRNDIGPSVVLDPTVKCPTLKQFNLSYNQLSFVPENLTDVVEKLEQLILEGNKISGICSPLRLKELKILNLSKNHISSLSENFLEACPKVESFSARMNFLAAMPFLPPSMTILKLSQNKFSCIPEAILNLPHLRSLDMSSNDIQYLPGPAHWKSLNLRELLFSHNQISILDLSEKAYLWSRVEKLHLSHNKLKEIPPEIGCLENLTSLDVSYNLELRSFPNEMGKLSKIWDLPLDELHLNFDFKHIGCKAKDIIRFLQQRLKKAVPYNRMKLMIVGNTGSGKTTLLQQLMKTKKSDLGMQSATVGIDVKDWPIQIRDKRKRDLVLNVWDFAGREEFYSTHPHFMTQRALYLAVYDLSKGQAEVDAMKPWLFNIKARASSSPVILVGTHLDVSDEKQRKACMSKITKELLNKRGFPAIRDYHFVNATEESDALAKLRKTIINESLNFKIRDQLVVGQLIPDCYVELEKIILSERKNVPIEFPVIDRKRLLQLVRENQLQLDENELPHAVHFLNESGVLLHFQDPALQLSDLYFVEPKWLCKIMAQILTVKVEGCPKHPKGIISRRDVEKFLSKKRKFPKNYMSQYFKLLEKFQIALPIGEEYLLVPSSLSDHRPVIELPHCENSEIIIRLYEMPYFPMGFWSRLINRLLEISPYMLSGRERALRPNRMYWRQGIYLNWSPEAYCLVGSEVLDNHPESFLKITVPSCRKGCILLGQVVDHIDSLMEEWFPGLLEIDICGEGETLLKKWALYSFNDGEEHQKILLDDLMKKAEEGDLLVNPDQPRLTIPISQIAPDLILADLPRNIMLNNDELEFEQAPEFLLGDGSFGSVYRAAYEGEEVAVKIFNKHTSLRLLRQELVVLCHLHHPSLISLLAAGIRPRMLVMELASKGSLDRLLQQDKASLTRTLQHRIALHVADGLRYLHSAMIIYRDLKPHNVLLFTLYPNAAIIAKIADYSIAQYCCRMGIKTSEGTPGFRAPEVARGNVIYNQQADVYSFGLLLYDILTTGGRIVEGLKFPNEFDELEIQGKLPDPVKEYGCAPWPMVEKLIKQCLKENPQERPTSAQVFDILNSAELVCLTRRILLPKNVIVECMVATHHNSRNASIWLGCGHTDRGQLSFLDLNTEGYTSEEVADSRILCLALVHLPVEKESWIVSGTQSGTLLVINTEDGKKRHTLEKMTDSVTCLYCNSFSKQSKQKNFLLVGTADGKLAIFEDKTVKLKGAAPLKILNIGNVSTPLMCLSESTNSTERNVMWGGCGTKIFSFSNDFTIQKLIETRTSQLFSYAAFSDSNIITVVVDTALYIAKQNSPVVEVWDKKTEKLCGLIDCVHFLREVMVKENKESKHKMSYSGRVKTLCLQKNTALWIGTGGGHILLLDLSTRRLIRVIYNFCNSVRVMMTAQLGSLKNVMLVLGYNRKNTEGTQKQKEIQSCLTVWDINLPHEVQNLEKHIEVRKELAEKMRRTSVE

Assay [2] concerns the target T3, LRRK2 (G2019S). Put plainly: LRRK2 G2019S enzyme inhibition, ADP-Glo kinase assay. The assay is classed as biochemical. More on the design: purchased SignalChem L10-12GG. To be noted: ATP 25 μM. The method, boiled down:
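Purified human LRRK2 G2019S (16 ng) with 25 μM ATP and 0.2 μg substrate, 2 h at 25° C. in Tris-HCl pH 7.4, MgCl2, BSA, DTT buffer; compounds at 12 final concentrations, 50 μM down to 0.000001024 μM. ADP-Glo luminescence versus solvent control gave IC50.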
Target sequence in this assay (Q5S007 970-2527 G2019S limits assumed): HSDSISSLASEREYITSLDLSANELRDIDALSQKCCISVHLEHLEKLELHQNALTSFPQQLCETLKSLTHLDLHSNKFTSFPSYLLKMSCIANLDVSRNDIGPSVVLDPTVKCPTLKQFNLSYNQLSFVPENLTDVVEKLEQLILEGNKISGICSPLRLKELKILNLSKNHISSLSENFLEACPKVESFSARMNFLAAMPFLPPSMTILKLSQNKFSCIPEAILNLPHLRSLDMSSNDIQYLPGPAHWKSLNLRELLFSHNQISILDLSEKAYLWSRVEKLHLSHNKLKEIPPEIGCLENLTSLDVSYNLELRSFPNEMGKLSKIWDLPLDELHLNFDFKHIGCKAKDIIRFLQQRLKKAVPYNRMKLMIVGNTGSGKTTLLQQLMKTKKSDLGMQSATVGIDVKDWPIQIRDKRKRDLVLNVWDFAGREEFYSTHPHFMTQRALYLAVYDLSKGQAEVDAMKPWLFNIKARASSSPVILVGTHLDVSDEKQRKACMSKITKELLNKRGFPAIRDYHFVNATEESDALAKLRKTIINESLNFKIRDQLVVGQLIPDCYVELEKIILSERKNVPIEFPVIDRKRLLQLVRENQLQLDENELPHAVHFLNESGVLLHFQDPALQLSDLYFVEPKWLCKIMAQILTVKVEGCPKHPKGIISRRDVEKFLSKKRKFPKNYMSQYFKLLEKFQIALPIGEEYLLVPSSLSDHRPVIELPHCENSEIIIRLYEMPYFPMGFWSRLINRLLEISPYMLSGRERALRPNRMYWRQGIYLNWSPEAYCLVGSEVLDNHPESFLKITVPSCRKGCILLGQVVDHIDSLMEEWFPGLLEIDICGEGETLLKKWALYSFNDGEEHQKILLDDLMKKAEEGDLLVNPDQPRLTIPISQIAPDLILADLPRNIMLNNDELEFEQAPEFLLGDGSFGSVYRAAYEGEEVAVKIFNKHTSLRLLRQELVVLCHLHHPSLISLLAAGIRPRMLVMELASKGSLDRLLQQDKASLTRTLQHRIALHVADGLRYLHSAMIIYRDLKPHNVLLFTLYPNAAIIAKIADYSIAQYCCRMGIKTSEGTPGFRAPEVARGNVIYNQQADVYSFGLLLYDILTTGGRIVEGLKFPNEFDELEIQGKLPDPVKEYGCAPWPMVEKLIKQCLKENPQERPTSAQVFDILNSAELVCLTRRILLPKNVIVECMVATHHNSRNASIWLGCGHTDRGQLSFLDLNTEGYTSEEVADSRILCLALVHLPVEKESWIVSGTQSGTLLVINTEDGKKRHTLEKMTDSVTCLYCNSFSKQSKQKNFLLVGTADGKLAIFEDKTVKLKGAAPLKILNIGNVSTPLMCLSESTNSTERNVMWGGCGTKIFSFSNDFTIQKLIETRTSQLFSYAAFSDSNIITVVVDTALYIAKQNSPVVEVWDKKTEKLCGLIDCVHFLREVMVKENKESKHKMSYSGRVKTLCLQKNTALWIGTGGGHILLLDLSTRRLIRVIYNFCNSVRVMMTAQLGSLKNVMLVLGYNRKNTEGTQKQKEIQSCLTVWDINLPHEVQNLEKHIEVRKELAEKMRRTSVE

In the next assay the test system is IL-6. Briefly: Inhibition of LPS-induced IL-6 secretion of THP-1 monocytes (ELISA). The assay is classed as cell-based, human. Particulars: Homo sapiens, THP-1; compound 0.5 μM, LPS 500 ng/mL, 24 hours; read-out: THP1/IL6 (% inhib). Summed up:
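THP-1 monocytes grown 16 h at 37 °C, pretreated 1 h with compound at final 0.5 μM, then stimulated with LPS at final 500 ng/mL for 24 h. IL-6 and TNF-α in culture supernatant measured by ELISA (OD 450 nm).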

The structures appear in SMILES notation.

T2 sequence (P49759 whole entry): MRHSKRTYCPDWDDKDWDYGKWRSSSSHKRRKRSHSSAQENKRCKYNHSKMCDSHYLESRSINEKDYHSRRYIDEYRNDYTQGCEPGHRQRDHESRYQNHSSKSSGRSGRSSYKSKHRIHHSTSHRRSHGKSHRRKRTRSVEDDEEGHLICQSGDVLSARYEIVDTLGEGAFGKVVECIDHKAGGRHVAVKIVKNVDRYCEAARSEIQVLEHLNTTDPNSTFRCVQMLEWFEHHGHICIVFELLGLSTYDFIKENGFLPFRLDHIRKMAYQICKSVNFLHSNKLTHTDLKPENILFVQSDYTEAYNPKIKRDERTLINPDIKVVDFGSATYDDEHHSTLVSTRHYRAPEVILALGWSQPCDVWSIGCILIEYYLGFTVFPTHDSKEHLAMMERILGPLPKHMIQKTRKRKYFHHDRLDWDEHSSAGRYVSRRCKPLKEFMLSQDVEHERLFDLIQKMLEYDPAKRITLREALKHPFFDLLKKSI
Sequence of LRRK2 (Q5S007 whole entry): as the sequence (Q5S007 whole entry G2019S) above, with S2019G counted along it

For the compound `COc1cc(S(=O)(=O)N2CCOCC2)ccc1Nc1nc(C2CC2)c2c(C(F)(F)F)c[nH]c2n1` [Example 225, 4-cyclopropyl-N-(2-methoxy-4-(morpholinosulfonyl)phenyl)-5-(trifluoromethyl)-7H-pyrrolo[2,3-d]pyrimidin-2-amine], the GI50 in the assay with MDA-MB-468 cell line and in the assay with MDA-MB-231 cell line was 301 to 1000 nM in each case. Besides, the concentration for half-maximal inhibition (IC50) at LRRK2, on DYRK1, against TTK, on CLK1 and at LRRK2 (G2019S) [1] was below 100 nM each time. Also, in the assay with human DYRK1A and tau, the inhibition at 1 µM stood at 29.9%. The inhibition at 0.25 µM in the assay with human DYRK1A and tau is 1%. In the assay on human DYRK1A and tau, the inhibition at 0.5 µM was -2.5%.
In turn, `O=C(c1ccc(Nc2nc(C3CC3)c3c(C(F)(F)F)c[nH]c3n2)c2c1OCCO2)N1CCOCC1` [Example 227, (8-((4-cyclopropyl-5-(trifluoromethyl)-7H-pyrrolo[2,3-d]pyrimidin-2-yl)amino)-2,3-dihydrobenzo[b][1,4]dioxin-5-yl)(morpholino)methanone] registered a GI50 in the assay with MDA-MB-468 cell line of 301 to 1000 nM. Further, the concentration for half-maximal inhibition (IC50) is below 100 nM on LRRK2; below 100 nM at DYRK1; 101 to 300 nM on TTK; below 100 nM at CLK1; below 100 nM at LRRK2 (G2019S) [1]. In the assay with human DYRK1A and tau, the inhibition at 1 µM is 32.7%. Further, the inhibition at 0.25 µM in the assay on human DYRK1A and tau was found to be 7.4%. The inhibition at 0.5 µM in the assay with human DYRK1A and tau was found to be 22.8%.
On to `C=CCNc1nc(Nc2ccc(S(=O)(=O)N3CCC(N4CCOCC4)CC3)cc2OC)nc2[nH]cc(C(F)(F)F)c12` [Example 469, N^4-allyl-N2-(2-methoxy-4-((4-morpholino-piperidin-1-yl)sulfonyl)phenyl)-5-(trifluoromethyl)-7H-pyrrolo[2,3-d]pyrimidine-2,4-diamine], for which the GI50 in the assay with MDA-MB-468 cell line and in the assay with MDA-MB-231 cell line was 101 to 300 nM throughout. Moreover, the IC50 on LRRK2, on DYRK1, at LRRK2 (G2019S) [2] and at CLK1 was below 100 nM each time.
`O=C(c1ccc(Nc2nc(C3CC3)c3c(C(F)(F)F)c[nH]c3n2)c2c1CCO2)N1CC[C@H](N2CCOCC2)C1` [Example 472] returned a GI50 in the assay on MDA-MB-468 cell line of 301 to 1000 nM. Moreover, the IC50 on LRRK2, at DYRK1, against TTK and on CLK1 was below 100 nM in each case. Moreover, in the assay with human DYRK1A and tau, the inhibition at 1 µM was 56.5%. The inhibition at 0.25 µM with human DYRK1A and tau worked out at 23.6%. The inhibition at 0.5 µM was 36.5% in the assay on human DYRK1A and tau; 31.5% in the assay on IL-6.
